Test results as given in the supplement of paper PMC10307832.

Experiments:
Experiment in all cases: relative viability (nuclei count vs DMSO), 5 days (fraction); higher = more cells survive
XMD13-2 + Phenformin = compound: C1CC1C(=O)NC2=NNC3=C2C=CC(=C3)C4=CC(=CC=C4)C(=O)NC5CC5 [XMD13-2] + N=C(N)NC(=N)NCCc1ccccc1 [Phenformin] (partner 250 µM)
Summary of the method: (§1)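 Relative viability is defined as nuclei in treated wells over nuclei in vehicle wells. Duplicate plates were run and medians reported. Lung cancer cell lines in 1536-well plates were dosed by pin tool one day after seeding, with one drug or with a fixed anchor-drug dose plus five library-drug doses (not always all listed) in √10 steps, and nuclei were counted after 5 days.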

[1] = compound: Cc1ccc(C(=O)Nc2cccc(C(F)(F)F)c2)cc1Nc1cncc(C(N)=O)c1 [ALW-II-49-7] + CC(=O)c1c(C)c2cnc(Nc3ccc(N4CCNCC4)cn3)nc2n(C2CCCC2)c1=O [Palbociclib] (partner 0.5 µM)
Summary of the method: as §1

ALW-II-49-7 + Crizotinib = compound: Cc1ccc(C(=O)Nc2cccc(C(F)(F)F)c2)cc1Nc1cncc(C(N)=O)c1 [ALW-II-49-7] + C[C@@H](Oc1cc(-c2cnn(C3CCNCC3)c2)cnc1N)c1c(Cl)ccc(F)c1Cl [Crizotinib] (partner 1 µM)
Summary of the method: as §1

Dasatinib + Foretinib = compound: Cc1nc(Nc2ncc(C(=O)Nc3c(C)cccc3Cl)s2)cc(N2CCN(CCO)CC2)n1 [Dasatinib] + COc1cc2c(Oc3ccc(NC(=O)C4(C(=O)Nc5ccc(F)cc5)CC4)cc3F)ccnc2cc1OCCCN1CCOCC1 [Foretinib] (partner 0.25 µM)
Summary of the method: as §1

Cell Line	relative viability (XMD13-2 + Phenformin; first compound 0.05 µM)	relative viability (XMD13-2 + Phenformin; first compound 0.1581 µM)	relative viability (XMD13-2 + Phenformin; first compound 0.5 µM)	relative viability (XMD13-2 + Phenformin; first compound 1.581 µM)	relative viability (XMD13-2 + Phenformin; first compound 5 µM)	relative viability ([1]; first compound 0.08 µM)	relative viability ([1]; first compound 0.253 µM)	relative viability ([1]; first compound 0.8 µM)	relative viability ([1]; first compound 2.53 µM)	relative viability ([1]; first compound 8 µM)	relative viability (ALW-II-49-7 + Crizotinib; first compound 0.08 µM)	relative viability (ALW-II-49-7 + Crizotinib; first compound 0.253 µM)	relative viability (ALW-II-49-7 + Crizotinib; first compound 0.8 µM)	relative viability (ALW-II-49-7 + Crizotinib; first compound 2.53 µM)	relative viability (ALW-II-49-7 + Crizotinib; first compound 8 µM)	relative viability (Dasatinib + Foretinib; first compound 0.005 µM)	relative viability (Dasatinib + Foretinib; first compound 0.01581 µM)	relative viability (Dasatinib + Foretinib; first compound 0.05 µM)	relative viability (Dasatinib + Foretinib; first compound 0.1581 µM)	relative viability (Dasatinib + Foretinib; first compound 0.5 µM)
NCI-H522	0.732	0.656	0.708	0.616	0.602	0.962	0.921	1.2	1.04	0.979										
NCI-H596	0.768	0.863	0.78	0.913	0.836						0.892	0.911	0.978	0.997	1.07	0.688	0.66	0.521	0.376	0.291
NCI-H1299											0.972	0.954	0.963	0.861	0.736	1.11	0.708	1.09	0.386	0.255
NCI-H1395	0.449	0.446	0.435	0.429	0.45	0.583	0.689	0.691		0.495						1	1.08	1.04	0.585	0.331
NCI-H1563	0.683	0.697	0.64	0.669	0.679						0.927	0.842	0.858	0.774	0.867	0.82	0.751	0.746	0.578	0.517
NCI-H1623	0.52	0.564	0.582	0.554	0.61											0.855	0.675	0.8	0.672	0.457
NCI-H1648						0.241	0.251	0.264	0.246	0.251										
NCI-H1703											0.859	0.713	0.554	0.309	0.211	0.276	0.292	0.23	0.202	0.262
NCI-H1792	0.29	0.306	0.259	0.324	0.352	0.564	0.454	0.471	0.522	0.548	0.795	0.866	0.819	0.827	0.878					
NCI-H1793	0.436		0.409	0.393	0.36	0.323	0.278	0.29	0.291	0.33						0.553	0.528	0.374	0.337	0.359
NCI-H2342	0.567	0.602	0.597	0.642	0.651	0.496	0.541	0.515	0.499	0.488						1.02	0.662	0.977	0.51	0.34
SW 900	0.696	0.621	0.682	0.49	0.781	0.475	0.577		0.573	0.658						0.685	0.608	0.787	0.476	0.225
